Test results as given in patent US6699875B2, “Cascade esters of camptothecins and methods of treating cancer using these compounds” (priority 2002, dated 2004).

Key:
human malignancies = assay: Clinical responses in Phase I clinical trial patients; type: in vivo; details: in humans, oral
Description: Clearly, there is a pressing need for a modification which will slow and delay the lactone ring opening upon its entrance into the blood circulation.

[1] = Plasma level of closed lactone form of 9NC after i.s. administration; type: in vivo, mice
[2] = Plasma level of closed lactone form of 9NC after oral administration to Phase I patients; type: in vivo, humans; details: after oral administration to Phase I clinical trial patients, on average
human tumor xenografts = details: in mice; cited from earlier work
[3] = Metabolism and pharmacokinetics of camptothecin in human plasma; type: in vitro ADME
[4] = Closed lactone form of CPT in plasma after intrastomach administration in mice; type: in vivo
[5] = Closed lactone form of CPT in plasma after oral administration in humans; type: in vivo
[6] = sodium carboxylate salt vs closed lactone camptothecin; cited from earlier work

With `CC[C@@]1(O)C(=O)OCc2c1cc1n(c2=O)Cc2cc3c([N+](=O)[O-])cccc3nc2-1` [9NC, 9-nitrocamptothecin] the complete tumor regressions (human malignancies) was 2/32, the “share of drug present in the plasma in the closed lactone form” value [1] was 57% and the “share of drug present in the plasma in the closed lactone form” value [2] was roughly 3%. For the same molecule, the complete tumor regressions (human tumor xenografts) was 32/32 and the “potency relative to CPT against human tumor xenografts” value (human tumor xenografts) was 2-3 times.
For 20(S)-camptothecin [CPT], the “half-life time of the drug with lactone intact” value [3] was 30 min, the metabolite detected [3] was “the only metabolite detected is the ring-opened sodium carboxylate salt” and the “closed lactone form, share of the area under the curve” value [4] was “approximately 54%”. For the same molecule, the “closed lactone form, share of the area under the curve” value [5] was “about 0.4%”.
For `CC[C@@](O)(C(=O)[O-])c1cc2n(c(=O)c1CO)Cc1cc3ccccc3nc1-2.[Na+]` [sodium carboxylate salt], the “potency relative to native camptothecin with the closed lactone ring intact” value [6] is given as 10%.
